These results are taken from patent publication US11945779B2, “Inhibitors of cancer metastasis through inhibiting migration and invasion of cancer cells” (VSpharmtech, priority 2018, dated 2024).

Structures are written as SMILES.

The subject of assay [1] is pancreatic cancer cells CFPAC-1. The assay is described as follows: Trans-well cancer cell migration inhibition, CFPAC-1. It is filed as cell-based. The settings on record: CFPAC-1, concentration not given, FIG. 3. As for the experimental part: In order to analyze cancer cell migration inhibitory activity of CG-608, CG-609 or CG-618 prepared in Examples 1, 2, or 9, cell migration inhibitory activity was measured using a trans-well by targeting a colon cancer cell line DLD-1 (ATCC-CCL-221), pancreatic cancer cell lines AsPc-1 (ATCC-CCL-1682). CFPAC-1 (ATCC-CCL-1918). Panc-1 (ATCC-CCL-1469), and Miapaca-2 (ATCC-CCL-1420), a skin cancer cell line A375-P (ATCC-CCL-3224), lung cancer cell lines HCC-827 (ATCC-CCL-2868), A549 (ATCC-CCL-185), and NCI-H460 (ATCC-CCL-177), a prostate cancer cell line DU145 (ATCC-HTB-81), a stomach cancer cell line NuGC-3 (JCRB0822), and an ovarian cancer cell line SKOV-3 (ATCC-HTB-77).
First, the number of DLD-1 cells was measured using a hemocytometer in an RPMI medium without FBS. […] After culture, […] of crystal violet (5 mg/mL of 20% […] was added to each well of the 24-well plate and the trans-well was dyed at room temperature for 30 minutes. The dyed trans-well was washed with PBS and non-migrated cells were wiped off with cotton swabs. The prepared sample was photographed with an inverted microscope mounted with a digital camera (TE 300, Nikon. Japan) and then the number of migrated cells was counted. The degree of inhibiting cell migration was calculated by Equation 1 for a group treated with the sample compared to a control group (DMSO). […]

Assay [2] deals with human-derived colon cancer cell line (HCT-116 luciferase). The assay is described as follows: Colon cancer liver metastasis implant model in nude mouse (live animal imaging). The settings on record: for Cancer metastasis inhibitory effect by whole image data: 20 times, five times a week. The format is in vivo. The text has this: In this experiment, a human-derived colon cancer cell line (HCT-116 luciferase) was implanted to the spleen and then the spleen was removed and sutured after four days. In a colon cancer liver metastasis implant model, cancer metastasis inhibitory activity by oral administration of CG-609 was verified using a live animal imaging system. As the animal, an Athymic-NCr NCr-nu SPF 5-week-old nude mouse supplied from Koatech (Pyeongtaek-si, Gyeonggi-do) was used. By adjusting a concentration of cancer cells to 2×10^6 cells/mL, the cell culture solution was injected directly into the spleen using a syringe (31 G needle, ½ cc) by 30 μL per mouse. The drug CG-609 was dissolved to a concentration of 5 mg/kg or 10 mg/kg using 0.5% Tween80 and then orally administered to the mouse in an amount of 10 mL/kg total 20 times on a schedule of five times a week.
HCT-116 luciferase cells were implanted, drug administration started from the day after the cancer cell was implanted, and the cells were imaged a total of seven times until the 25th day, the end of the experiment. During imaging, 50 μL of […] was intraperitoneally administered into each side of the animal's abdomen at a concentration of luciferin 15 mg/mL, and then photographed using an optical imaging system (IVIS-spectrum CT, PerkinElmer). On the final day of the test, the mouse was imaged and then […], and major organs (liver, kidney, and colon) were extracted to be imaged, and then the degree of image signal was measured. The values of all measurement items were tested for statistical significance by comparing a solvent control and a drug administration group using a t-TEST statistical method (FIGS. 10A and 10B).

The subject of assay [3] is human colon cancer cell line DLD-1. The assay is described as follows: Lamellipodia formation inhibition (confocal microscope), DLD-1. Conditions: DLD-1, 6 hours, FIG. 9. It is filed as cell-based. As for the experimental part:
A human colon cancer cell line DLD-1, a human pancreatic cancer cell line AsPc-1, a human melanoma cell line A375P, and normal cells MCF10A were each cultured to 1×10^5 cell density on a 35 mm high-m dish plate (ibid GmbH). The cells attached to the plate were washed with phosphate buffered saline (PBS) and then treated with DMSO or CG-618 dissolved in DMSO for 6 hours. After removing the cell culture medium from the plate, the plate was washed two times with PBS and treated with 4% paraformaldehyde dissolved in PBS at room temperature for 10 minutes to immobilize the cells. The plate was washed with PBS once and then treated with 0.2% Triton X-100 at room temperature for 10 minutes to enhance cell permeability. The plate was washed with PBS and treated with 1% BSA dissolved in PBS at room temperature for 1 hour to block non-specific bonds. In order to check the distribution in cells of filament actin (F-actin), phalloidin bound with Alexa Fluor 488, which was specifically bound with F-actin, was treated at room temperature for 15 minutes. The plate was washed with PBS three times and then treated with 2 mg/mL 4′,6′-diamidino-2-phenylindole (DAPAI) dissolved in PBS for two minutes at room temperature to dye the nucleus. The plate was washed with PBS three times and filled with 1 mL PBS. […] The obtained images were analyzed by an analysis program (LSM Version 3.2 software).

In a further assay the test system is normal cell line MCF-10A. As to the kind of experiment: Real-time single cell migration imaging (HoloMonitor M4), MCF-10A. The settings on record: 24 hours, FIG. 7. It is filed as cell-based. As for the experimental part:
An effect of a drug on migration of single cells was confirmed using HoloMonitor M4 (Phase Holographic Imaging), real-time cell migration imaging and analysis equipment. All experiments were performed within a 37° C. cell incubator to analyze cell migration while cells were alive for a long time. To prevent water vapor generated during cell imaging for a long time from obstructing the imaging, the experiment was conducted by dividing cells in an m-slide microcopy chamber (Ibidi). In order to analyze migration of single cells, cells (2.5×10^5 cells/mL) to be analyzed were divided to the m-slide microscopy chamber by 0.2 mL and cultured for more than 12 hours. The cells were sufficiently attached to its original shape and then treated with the drug, and a position to be analyzed was specified, and then the cell migration was measured in real time.
The cell migration was measured for 24 hours at five-minute intervals, and migration of 25 cells per group was analyzed. Using the HoloMonitor tracking software, a total distance migrated by the cells during the time measured, a linear distance from the starting point to the arrival point, a rate of migration, and a direction were quantitatively analyzed, and the migration of single cells was visualized with a Wind-Rose plot (FIG. 7).

In the case of `C[C@H](COc1ccccc1Cc1ccccc1)N1CCCC[C@@H]1C` [CG-609, (S)-1-((R)-1-(2-benzylphenoxy)propan-2-yl)-2-methylpiperidine], in assay [1], the “Inhibition of cell migration” value is on record as at least 50%. Also, in assay [2] (5 mg/kg oral), the “Colon metastasis inhibitory effect” value is 76.9%, the “Liver metastasis inhibitory effect” value turned out to be 47.7%, the “Renal metastasis inhibitory effect” value is recorded as 72.4% and the “Cancer metastasis inhibitory effect by whole image data” value is given as 77.9%. The “Inhibition of cancer metastasis in animal experiment” value in assay [2] (5 mg/kg, 10 times lower dose than benproperine (50 mg/kg), FIGS. 10A and 10B) is recorded as at least 50%. In addition, in assay [2] (10 mg/kg oral), the “Colon metastasis inhibitory effect” value was 85.6%, the “Liver metastasis inhibitory effect” value was determined as 58.6%, the “Renal metastasis inhibitory effect” value was 76.1% and the “Cancer metastasis inhibitory effect by whole image data” value stood at 80.1%.
Turning to `CC1CCCCN1C(C)COc1ccccc1Cc1ccccc1` (racemic) [CG-618, 1-(1-(2-benzylphenoxy)propan-2-yl)-2-methylpiperidine], the Formation of lamellipodia entry in assay [3] was “inhibits formation of lamellipodia”. In addition, the “Migration of single normal cells (real-time imaging)” value in the assay with normal cell line MCF-10A is reported as “increased”.
